# Assay results taken from ChEMBL document CHEMBL5291721, “A preclinical secondary pharmacology resource illuminates target-adverse drug reaction associations of marketed drugs” (Nat Commun, 2023).
# Assays:
# [1] = target: Voltage-dependent N-type calcium channel subunit alpha-1B (Rattus norvegicus, UniProt Q02294); type: functional
# [2] = target: T1, Sodium-dependent noradrenaline transporter (Homo sapiens, UniProt P23975)
# [3] = target: T2, 5-hydroxytryptamine receptor 2B (Homo sapiens, UniProt P41595); type: functional, cell-based
# [4] = target: Kappa-type opioid receptor (Homo sapiens, UniProt P41145)
# Mu-type opioid receptor [5] = target: T3, Mu-type opioid receptor (Homo sapiens, UniProt P35372)
# Cannabinoid receptor 1 [6] = target: T4, Cannabinoid receptor 1 (Homo sapiens, UniProt P21554); type: functional, cell-based
# [7] = target: T5, 5-hydroxytryptamine receptor 1A (Homo sapiens, UniProt P08908)
# T5 sequence (P08908 whole entry): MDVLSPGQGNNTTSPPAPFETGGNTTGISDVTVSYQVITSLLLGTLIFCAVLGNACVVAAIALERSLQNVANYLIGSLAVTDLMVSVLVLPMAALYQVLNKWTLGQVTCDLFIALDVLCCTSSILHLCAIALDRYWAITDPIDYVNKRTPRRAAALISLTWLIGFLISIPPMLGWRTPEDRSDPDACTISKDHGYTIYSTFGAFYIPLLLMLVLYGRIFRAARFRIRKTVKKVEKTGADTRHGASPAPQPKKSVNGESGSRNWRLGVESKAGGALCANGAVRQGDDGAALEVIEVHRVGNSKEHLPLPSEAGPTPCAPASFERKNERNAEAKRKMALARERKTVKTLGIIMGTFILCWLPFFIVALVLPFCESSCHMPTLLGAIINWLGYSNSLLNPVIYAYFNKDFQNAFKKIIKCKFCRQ
# Cannabinoid receptor 1 [8] = target: T4, Cannabinoid receptor 1
# D(1A) dopamine receptor [9] = target: T6, D(1A) dopamine receptor (Homo sapiens, UniProt P21728)
# [10] = target: T7, Sodium-dependent dopamine transporter (Homo sapiens, UniProt Q01959)
# [11] = target: Glutamate receptor ionotropic, NMDA 1 (Rattus norvegicus, UniProt P35439)
# [12] = target: T2, 5-hydroxytryptamine receptor 2B
# [13] = target: T8, 5-hydroxytryptamine receptor 2C (Homo sapiens, UniProt P28335)
# T8 sequence (P28335 whole entry): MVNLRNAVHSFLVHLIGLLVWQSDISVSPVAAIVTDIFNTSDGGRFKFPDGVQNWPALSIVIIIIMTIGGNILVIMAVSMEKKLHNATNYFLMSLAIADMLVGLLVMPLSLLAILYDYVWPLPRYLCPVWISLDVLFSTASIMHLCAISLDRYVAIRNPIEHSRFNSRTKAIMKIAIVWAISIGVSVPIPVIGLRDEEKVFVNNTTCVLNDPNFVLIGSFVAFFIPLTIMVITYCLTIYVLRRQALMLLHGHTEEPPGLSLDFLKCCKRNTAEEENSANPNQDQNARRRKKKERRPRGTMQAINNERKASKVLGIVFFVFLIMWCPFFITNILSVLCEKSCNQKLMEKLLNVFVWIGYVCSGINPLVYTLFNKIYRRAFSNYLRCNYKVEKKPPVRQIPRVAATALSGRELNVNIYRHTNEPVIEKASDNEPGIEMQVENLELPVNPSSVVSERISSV
# [14] = target: T7, Sodium-dependent dopamine transporter; remark: listed apart in the source
# [15] = target: Delta-type opioid receptor (Homo sapiens, UniProt P41143)
# [16] = target: T9, Gamma-aminobutyric acid receptor subunit alpha-1 (Rattus norvegicus, UniProt P62813); type: functional
# [17] = target: T9, Gamma-aminobutyric acid receptor subunit alpha-1
# [18] = target: T9, Gamma-aminobutyric acid receptor subunit alpha-1; remark: listed apart in the source
# [19] = target: T5, 5-hydroxytryptamine receptor 1A; remark: listed apart in the source
# [20] = target: T2, 5-hydroxytryptamine receptor 2B; type: functional, cell-based; remark: listed apart in the source
# [21] = target: T5, 5-hydroxytryptamine receptor 1A; type: functional, cell-based
# D(4) dopamine receptor = target: T10, D(4) dopamine receptor (Homo sapiens, UniProt P21917)
# T10 sequence (P21917 whole entry): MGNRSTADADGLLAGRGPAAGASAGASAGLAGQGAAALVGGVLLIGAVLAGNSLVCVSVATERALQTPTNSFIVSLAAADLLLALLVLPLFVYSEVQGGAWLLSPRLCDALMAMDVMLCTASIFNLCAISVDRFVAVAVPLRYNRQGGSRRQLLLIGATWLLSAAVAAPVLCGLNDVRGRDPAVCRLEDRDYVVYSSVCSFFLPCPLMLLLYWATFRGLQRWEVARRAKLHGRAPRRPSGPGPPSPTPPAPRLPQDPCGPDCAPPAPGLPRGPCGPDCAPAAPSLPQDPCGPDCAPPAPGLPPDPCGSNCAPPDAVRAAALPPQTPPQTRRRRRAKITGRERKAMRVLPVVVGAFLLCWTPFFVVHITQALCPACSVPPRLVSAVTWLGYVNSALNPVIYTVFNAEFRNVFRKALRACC
# [22] = target: T11, 5-hydroxytryptamine receptor 3A (Homo sapiens, UniProt P46098); type: functional
# T11 sequence (P46098 whole entry): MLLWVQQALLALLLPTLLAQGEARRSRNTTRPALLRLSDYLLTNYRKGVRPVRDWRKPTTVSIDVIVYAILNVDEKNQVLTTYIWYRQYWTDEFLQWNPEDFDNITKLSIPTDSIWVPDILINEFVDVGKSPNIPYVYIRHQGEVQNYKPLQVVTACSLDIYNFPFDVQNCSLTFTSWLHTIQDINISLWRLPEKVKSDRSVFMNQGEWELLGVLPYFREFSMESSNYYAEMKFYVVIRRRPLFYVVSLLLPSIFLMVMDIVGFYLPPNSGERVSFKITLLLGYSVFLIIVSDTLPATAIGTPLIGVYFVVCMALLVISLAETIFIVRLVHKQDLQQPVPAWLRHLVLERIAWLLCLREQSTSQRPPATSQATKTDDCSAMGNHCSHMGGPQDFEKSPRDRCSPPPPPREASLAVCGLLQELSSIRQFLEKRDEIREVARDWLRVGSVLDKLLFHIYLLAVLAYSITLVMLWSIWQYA
# D(3) dopamine receptor [23] = target: T12, D(3) dopamine receptor (Homo sapiens, UniProt P35462)
# Mu-type opioid receptor [24] = target: T3, Mu-type opioid receptor; remark: listed apart in the source
# [25] = target: T5, 5-hydroxytryptamine receptor 1A; type: functional, cell-based; remark: listed apart in the source
# D(1A) dopamine receptor [26] = target: T6, D(1A) dopamine receptor; remark: listed apart in the source
# D(1A) dopamine receptor [27] = target: T6, D(1A) dopamine receptor; remark: listed apart in the source
# D(1A) dopamine receptor [28] = target: T6, D(1A) dopamine receptor; type: functional, cell-based
# D(3) dopamine receptor [29] = target: T12, D(3) dopamine receptor; remark: listed apart in the source
# [30] = target: T2, 5-hydroxytryptamine receptor 2B; type: functional, cell-based; remark: listed apart in the source
# [31] = target: Neuronal acetylcholine receptor subunit alpha-4 (Homo sapiens, UniProt P43681)
# [32] = target: T1, Sodium-dependent noradrenaline transporter; remark: listed apart in the source
# Note: assay procedure not described here.
# T2 sequence (P41595 whole entry): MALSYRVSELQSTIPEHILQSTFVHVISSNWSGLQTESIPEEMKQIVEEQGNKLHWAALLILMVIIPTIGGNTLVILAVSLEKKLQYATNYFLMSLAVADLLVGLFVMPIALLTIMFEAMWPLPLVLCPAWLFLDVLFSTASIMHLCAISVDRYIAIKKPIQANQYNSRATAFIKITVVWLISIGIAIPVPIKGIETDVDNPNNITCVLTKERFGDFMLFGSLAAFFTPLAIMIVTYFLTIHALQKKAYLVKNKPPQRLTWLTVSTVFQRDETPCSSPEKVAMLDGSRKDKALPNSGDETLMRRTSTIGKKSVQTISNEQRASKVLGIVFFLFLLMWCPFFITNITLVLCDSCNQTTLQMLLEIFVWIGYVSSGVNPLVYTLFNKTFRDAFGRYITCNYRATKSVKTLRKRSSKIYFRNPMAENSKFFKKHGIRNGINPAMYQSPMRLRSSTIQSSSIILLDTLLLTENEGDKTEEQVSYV
# T6 sequence (P21728 whole entry): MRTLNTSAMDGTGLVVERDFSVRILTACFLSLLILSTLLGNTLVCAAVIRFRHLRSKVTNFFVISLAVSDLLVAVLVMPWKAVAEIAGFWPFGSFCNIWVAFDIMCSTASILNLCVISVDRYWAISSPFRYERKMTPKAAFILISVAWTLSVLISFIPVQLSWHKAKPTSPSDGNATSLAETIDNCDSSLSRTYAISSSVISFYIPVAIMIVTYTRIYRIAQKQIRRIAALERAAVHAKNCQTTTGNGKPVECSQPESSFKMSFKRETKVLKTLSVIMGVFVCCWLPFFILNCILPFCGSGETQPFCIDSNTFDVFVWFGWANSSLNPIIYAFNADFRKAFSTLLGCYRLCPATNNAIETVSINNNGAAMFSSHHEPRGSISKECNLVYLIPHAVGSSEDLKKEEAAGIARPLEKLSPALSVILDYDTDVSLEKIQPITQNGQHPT
# T9 sequence (P62813 whole entry): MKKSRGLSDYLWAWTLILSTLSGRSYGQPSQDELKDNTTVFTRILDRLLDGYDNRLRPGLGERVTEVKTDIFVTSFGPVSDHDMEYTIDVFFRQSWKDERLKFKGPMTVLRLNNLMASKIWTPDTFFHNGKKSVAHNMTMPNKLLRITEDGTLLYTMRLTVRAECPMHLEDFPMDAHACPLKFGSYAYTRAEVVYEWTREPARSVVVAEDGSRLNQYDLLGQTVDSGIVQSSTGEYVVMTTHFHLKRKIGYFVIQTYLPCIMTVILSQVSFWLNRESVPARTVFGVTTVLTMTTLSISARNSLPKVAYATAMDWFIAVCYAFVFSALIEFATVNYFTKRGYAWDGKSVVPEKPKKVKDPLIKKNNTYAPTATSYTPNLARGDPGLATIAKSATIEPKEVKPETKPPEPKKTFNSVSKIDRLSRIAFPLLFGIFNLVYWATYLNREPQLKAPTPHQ
# T3 sequence (P35372 whole entry): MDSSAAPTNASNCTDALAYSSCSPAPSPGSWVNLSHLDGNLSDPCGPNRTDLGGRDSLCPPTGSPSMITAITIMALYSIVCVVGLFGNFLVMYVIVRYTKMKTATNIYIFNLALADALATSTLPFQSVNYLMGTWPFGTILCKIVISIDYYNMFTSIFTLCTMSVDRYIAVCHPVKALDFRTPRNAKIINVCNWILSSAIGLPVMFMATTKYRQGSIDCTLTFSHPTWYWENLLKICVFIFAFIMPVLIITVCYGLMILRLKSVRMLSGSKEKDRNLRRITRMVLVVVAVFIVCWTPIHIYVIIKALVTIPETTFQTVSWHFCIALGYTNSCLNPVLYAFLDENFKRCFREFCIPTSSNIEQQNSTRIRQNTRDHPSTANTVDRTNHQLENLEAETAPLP
# T7 sequence (Q01959 whole entry): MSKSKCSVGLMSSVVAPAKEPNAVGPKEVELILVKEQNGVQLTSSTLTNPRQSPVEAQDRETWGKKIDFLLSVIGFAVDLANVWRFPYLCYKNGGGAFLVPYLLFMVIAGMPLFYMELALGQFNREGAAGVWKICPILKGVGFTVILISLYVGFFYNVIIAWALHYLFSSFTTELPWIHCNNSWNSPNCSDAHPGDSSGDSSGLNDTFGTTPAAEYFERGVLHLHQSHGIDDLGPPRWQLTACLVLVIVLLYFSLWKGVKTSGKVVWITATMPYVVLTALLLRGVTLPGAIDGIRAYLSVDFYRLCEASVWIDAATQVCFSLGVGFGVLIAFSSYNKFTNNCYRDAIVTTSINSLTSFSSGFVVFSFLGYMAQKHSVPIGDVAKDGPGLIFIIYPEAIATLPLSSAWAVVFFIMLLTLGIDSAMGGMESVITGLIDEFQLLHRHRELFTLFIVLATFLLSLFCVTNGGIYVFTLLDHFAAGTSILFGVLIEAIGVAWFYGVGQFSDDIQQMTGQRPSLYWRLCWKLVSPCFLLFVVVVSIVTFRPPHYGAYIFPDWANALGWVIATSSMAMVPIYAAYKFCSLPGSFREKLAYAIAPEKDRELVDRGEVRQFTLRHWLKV
# T4 sequence (P21554 whole entry): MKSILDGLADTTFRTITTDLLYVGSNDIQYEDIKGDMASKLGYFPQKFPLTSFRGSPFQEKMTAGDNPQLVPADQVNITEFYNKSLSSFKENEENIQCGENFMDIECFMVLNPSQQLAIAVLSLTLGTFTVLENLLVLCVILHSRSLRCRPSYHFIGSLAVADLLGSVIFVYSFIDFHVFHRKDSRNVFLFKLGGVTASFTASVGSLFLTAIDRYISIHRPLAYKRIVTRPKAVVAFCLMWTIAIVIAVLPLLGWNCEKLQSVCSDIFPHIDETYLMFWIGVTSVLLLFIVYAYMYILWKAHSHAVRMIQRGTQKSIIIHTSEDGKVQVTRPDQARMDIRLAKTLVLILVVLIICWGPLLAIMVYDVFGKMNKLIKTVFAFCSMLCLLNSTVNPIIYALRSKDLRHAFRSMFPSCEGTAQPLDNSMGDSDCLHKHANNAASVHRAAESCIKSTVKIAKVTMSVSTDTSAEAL
# T12 sequence (P35462 whole entry): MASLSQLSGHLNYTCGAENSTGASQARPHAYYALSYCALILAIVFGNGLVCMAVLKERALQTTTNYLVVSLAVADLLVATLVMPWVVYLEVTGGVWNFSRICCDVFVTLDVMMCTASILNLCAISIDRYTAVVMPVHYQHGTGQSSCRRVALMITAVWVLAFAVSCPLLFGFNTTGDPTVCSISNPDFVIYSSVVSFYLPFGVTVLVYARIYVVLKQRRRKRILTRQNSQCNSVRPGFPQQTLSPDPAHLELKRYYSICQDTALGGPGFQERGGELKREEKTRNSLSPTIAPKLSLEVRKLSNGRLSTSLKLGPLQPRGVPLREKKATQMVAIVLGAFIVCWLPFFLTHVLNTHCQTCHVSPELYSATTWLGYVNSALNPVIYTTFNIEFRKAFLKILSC
# T1 sequence (P23975 whole entry): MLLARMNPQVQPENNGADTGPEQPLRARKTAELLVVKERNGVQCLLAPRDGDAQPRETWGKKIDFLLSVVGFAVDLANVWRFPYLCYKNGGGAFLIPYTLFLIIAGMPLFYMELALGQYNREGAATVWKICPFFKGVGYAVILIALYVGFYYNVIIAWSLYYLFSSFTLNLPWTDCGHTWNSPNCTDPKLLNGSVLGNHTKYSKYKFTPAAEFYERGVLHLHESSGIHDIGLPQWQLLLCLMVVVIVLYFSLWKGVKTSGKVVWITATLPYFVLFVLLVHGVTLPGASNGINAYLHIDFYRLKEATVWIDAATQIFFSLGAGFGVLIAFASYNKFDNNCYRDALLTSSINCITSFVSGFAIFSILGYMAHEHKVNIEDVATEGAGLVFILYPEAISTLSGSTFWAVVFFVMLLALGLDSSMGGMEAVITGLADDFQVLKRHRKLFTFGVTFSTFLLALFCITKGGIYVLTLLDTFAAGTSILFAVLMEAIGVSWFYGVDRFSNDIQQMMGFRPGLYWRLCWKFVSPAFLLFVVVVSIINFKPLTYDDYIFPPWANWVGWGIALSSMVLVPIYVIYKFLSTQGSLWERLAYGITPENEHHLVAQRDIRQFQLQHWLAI
# Chain of Delta-type opioid receptor (P41143 whole entry): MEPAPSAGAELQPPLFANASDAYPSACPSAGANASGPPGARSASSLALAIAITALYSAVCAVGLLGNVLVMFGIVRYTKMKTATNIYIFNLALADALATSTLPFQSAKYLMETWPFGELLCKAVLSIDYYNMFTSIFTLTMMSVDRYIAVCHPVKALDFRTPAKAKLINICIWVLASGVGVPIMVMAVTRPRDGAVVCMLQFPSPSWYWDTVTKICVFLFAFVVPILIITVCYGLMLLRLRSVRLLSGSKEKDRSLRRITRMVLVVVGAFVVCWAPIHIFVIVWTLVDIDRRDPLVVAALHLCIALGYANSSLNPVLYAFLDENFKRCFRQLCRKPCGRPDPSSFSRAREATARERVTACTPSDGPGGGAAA
# Chain of Kappa-type opioid receptor (P41145 whole entry): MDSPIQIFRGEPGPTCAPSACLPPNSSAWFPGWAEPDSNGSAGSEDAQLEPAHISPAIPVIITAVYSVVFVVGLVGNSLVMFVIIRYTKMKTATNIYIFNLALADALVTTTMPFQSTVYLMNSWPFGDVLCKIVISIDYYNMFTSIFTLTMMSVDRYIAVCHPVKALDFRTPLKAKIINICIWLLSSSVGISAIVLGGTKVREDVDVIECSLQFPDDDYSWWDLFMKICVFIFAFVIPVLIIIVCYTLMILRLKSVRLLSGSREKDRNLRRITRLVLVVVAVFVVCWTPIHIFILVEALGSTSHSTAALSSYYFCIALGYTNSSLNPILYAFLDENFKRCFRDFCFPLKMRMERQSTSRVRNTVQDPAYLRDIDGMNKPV
structure (smiles),measurement,setting,value
COC(=O)C1=C(C)NC(C)=C(C(=O)OC)C1c1ccccc1[N+](=O)[O-] [NIFEDIPINE],AC50,[1],> 10 µM
same,AC50,[2],> 10 µM
same,AC50,[3],> 30 µM
same,AC50,[4],> 10 µM
same,AC50,Mu-type opioid receptor [5],11 µM
same,AC50,Cannabinoid receptor 1 [6],> 30 µM
same,AC50,[7],> 10 µM
same,AC50,Cannabinoid receptor 1 [8],> 10 µM
same,AC50,D(1A) dopamine receptor [9],> 30 µM
same,AC50,[10],> 10 µM
same,AC50,[11],> 10 µM
same,AC50,[12],> 10 µM
same,AC50,[13],> 30 µM
same,AC50,[14],> 30 µM
same,AC50,[15],> 30 µM
same,AC50,[16],> 10 µM
same,AC50,[17],> 30 µM
same,AC50,[18],> 10 µM
same,AC50,[19],> 30 µM
same,AC50,[20],> 10 µM
same,AC50,[21],> 10 µM
same,AC50,D(4) dopamine receptor,> 10 µM
same,AC50,[22],> 30 µM
same,AC50,D(3) dopamine receptor [23],> 30 µM
same,AC50,Mu-type opioid receptor [24],> 30 µM
same,AC50,[25],> 10 µM
same,AC50,D(1A) dopamine receptor [26],26 µM
same,AC50,D(1A) dopamine receptor [27],> 10 µM
same,AC50,D(1A) dopamine receptor [28],> 10 µM
same,AC50,D(3) dopamine receptor [29],> 10 µM
same,AC50,[30],6.8 µM
same,AC50,[31],> 10 µM
same,AC50,[32],> 30 µM
